Assay results taken from PMC7377239, “Cardiovascular Effects of Polychlorinated Biphenyls and Their Major Metabolites” (Environmental Health Perspectives, 2020).
Where two headings read alike, the source gives them in different places.

How the values were obtained:
[1] = system: iCell cardiomyocytes (human iPSC-derived cardiomyocytes); test: High-content imaging of cytotoxicity and mitochondrial integrity in iPSC-CMs; type: cell-based; conditions: Homo sapiens, Cardiomyocyte; for viability at 0.01 µM / activity at 0.01 µM / viability at 0.1 µM / activity at 0.1 µM / viability at 1 µM / activity at 1 µM / viability at 10 µM / activity at 10 µM / viability at 100 µM / activity at 100 µM: 0.00 µM = 100.00; for viability at 0.1 µM / activity at 0.1 µM: 0.10 µM
Summary of the method: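 Cardiomyocytes grown on gelatinized 384-well plates received fresh medium on the experiment day and were then exposed to chemicals at 0.01–100μM. Nuclei and mitochondria were labeled with Hoechst 33342 and MitoTracker™ Orange, then fixed, and imaged on an ImageXpress® Micro Confocal system. Four-parameter logistic concentration–response fits in R, with a one-standard-deviation vehicle cutoff, gave point-of-departure values.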

HUVECs = test: High-content imaging cytotoxicity in HUVECs, 24 h; type: cell-based, human; conditions: Homo sapiens, HUVEC, 24 h, HUVECs; for viability at 0.01 µM / activity at 0.01 µM / viability at 0.1 µM / activity at 0.1 µM / viability at 1 µM / activity at 1 µM / viability at 10 µM / activity at 10 µM / viability at 100 µM / activity at 100 µM: 0.00 µM = 100.00; for viability at 0.1 µM / activity at 0.1 µM: 0.10 µM; for minimal effective concentration: top concentration 100.00 µM
Summary of the method: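 Confluent HUVEC monolayers, passages 1–5, received test chemicals for 24 h. Cytotoxicity was scored from triple-stain high-content images, with PODs defined by a one-SD deviation from 0.5% DMSO vehicle controls.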

[2] = 1.5 h, 90min, read-out: cm.cam.90min
[3] = 1.5 h, 90min, read-out: cm.mii.90min
[4] = 1.5 h, 90min, read-out: cm.mito.90min
[5] = 1.5 h, 90min, read-out: cm.tc.90min
[6] = 24 h, 24hrs, read-out: cm.cam.24hrs
[7] = 24 h, 24hrs, read-out: cm.mii.24hrs
[8] = 24 h, 24hrs, read-out: cm.mito.24hrs
[9] = 24 h, 24hrs, read-out: cm.tc.24hrs
[10] = 24 hr, read-out: huvec.cyto.24hr
[11] = 24 hr, read-out: huvec.mito.24hr
[12] = 24 hr, read-out: huvec.mitoint.24hr
[13] = 24 hr, read-out: huvec.nma.24hr
[14] = 24 hrs, read-out: huvec.tc.24hrs

How did the viability at 0.01 µM [1, 2] turn out when Oc1cc(Cl)c(-c2cc(Cl)ccc2Cl)cc1Cl [4-OH PCB52] was run?
The viability at 0.01 µM was 89.4%.

And the activity at 0.01 µM [1, 3]?
Its activity at 0.01 µM is 103%.

And the activity at 0.01 µM [1, 4]?
The activity at 0.01 µM was 87.5%.

What about the viability at 0.01 µM [1, 5] of the same compound?
The viability at 0.01 µM was 89.4%.

What about the viability at 0.1 µM [1, 2] of the same compound?
Its viability at 0.1 µM is 103%.

What about the activity at 0.1 µM [1, 3] of the same compound?
The activity at 0.1 µM was 101%.

And the activity at 0.1 µM [1, 4]?
Its activity at 0.1 µM is 103%.

What about the viability at 0.1 µM [1, 5] of the same compound?
The viability at 0.1 µM was 104%.

What about the viability at 1 µM [1, 2] of the same compound?
Its viability at 1 µM is 97.9%.

What about the activity at 1 µM [1, 3] of the same compound?
Its activity at 1 µM is 97.3%.

What about the activity at 1 µM [1, 4] of the same compound?
Its activity at 1 µM is 97.9%.

And the viability at 1 µM [1, 5]?
The viability at 1 µM was 98.1%.

And the viability at 10 µM [1, 2]?
The viability at 10 µM was 95.1%.

And the activity at 10 µM [1, 3]?
The activity at 10 µM was 116%.

What about the activity at 10 µM [1, 4] of the same compound?
The activity at 10 µM was 94.7%.

And the viability at 10 µM [1, 5]?
The viability at 10 µM was 94.9%.

What about the viability at 100 µM [1, 2] of the same compound?
Its viability at 100 µM is 0%.

And the activity at 100 µM [1, 3]?
Its activity at 100 µM is 7.54%.

And the activity at 100 µM [1, 4]?
Its activity at 100 µM is 0.0231%.

And the viability at 100 µM [1, 5]?
Its viability at 100 µM is 0.0461%.

And the minimal effective concentration ([1]; 1.5 h, 90min, read-out: cm.cam.90min POD)?
The minimal effective concentration was 8.86 µM.

And the minimal effective concentration ([1]; 1.5 h, 90min, read-out: cm.mii.90min POD)?
The minimal effective concentration was 45.7 µM.

And the minimal effective concentration ([1]; 1.5 h, 90min, read-out: cm.mito.90min POD)?
Its minimal effective concentration is 8.61 µM.

What about the minimal effective concentration ([1]; 1.5 h, 90min, read-out: cm.tc.90min POD) of the same compound?
Its minimal effective concentration is 8.75 µM.

And the viability at 0.01 µM [1, 6]?
The viability at 0.01 µM was 99.2%.

What about the activity at 0.01 µM [1, 7] of the same compound?
Its activity at 0.01 µM is 98.8%.

And the activity at 0.01 µM [1, 8]?
Its activity at 0.01 µM is 99.4%.

What about the viability at 0.01 µM [1, 9] of the same compound?
Its viability at 0.01 µM is 99.5%.

What about the viability at 0.1 µM [1, 6] of the same compound?
The viability at 0.1 µM was 102%.

And the activity at 0.1 µM [1, 7]?
Its activity at 0.1 µM is 93.3%.

And the activity at 0.1 µM [1, 8]?
Its activity at 0.1 µM is 104%.

What about the viability at 0.1 µM [1, 9] of the same compound?
The viability at 0.1 µM was 103%.

What about the viability at 1 µM [1, 6] of the same compound?
The viability at 1 µM was 96.1%.

What about the activity at 1 µM [1, 7] of the same compound?
The activity at 1 µM was 102%.

And the activity at 1 µM [1, 8]?
The activity at 1 µM was 94.1%.

What about the viability at 1 µM [1, 9] of the same compound?
Its viability at 1 µM is 96%.

What about the viability at 10 µM [1, 6] of the same compound?
Its viability at 10 µM is 101%.

What about the activity at 10 µM [1, 7] of the same compound?
The activity at 10 µM was 88.3%.

And the activity at 10 µM [1, 8]?
The activity at 10 µM was 102%.

And the viability at 10 µM [1, 9]?
The viability at 10 µM was 101%.

What about the viability at 100 µM [1, 6] of the same compound?
The viability at 100 µM was 10.2%.

What about the activity at 100 µM [1, 7] of the same compound?
The activity at 100 µM was 193%.

And the activity at 100 µM [1, 8]?
Its activity at 100 µM is 20.3%.

What about the viability at 100 µM [1, 9] of the same compound?
The viability at 100 µM was 49.7%.

What about the minimal effective concentration ([1]; 24 h, read-out: cm.cam.24hrs POD) of the same compound?
Its minimal effective concentration is 32.7 µM.

And the minimal effective concentration ([1]; 24 h, read-out: cm.mii.24hrs POD)?
Its minimal effective concentration is 65.1 µM.

What about the minimal effective concentration ([1]; 24 h, read-out: cm.mito.24hrs POD) of the same compound?
The minimal effective concentration was 36.7 µM.

And the minimal effective concentration ([1]; 24 h, read-out: cm.tc.24hrs POD)?
Its minimal effective concentration is 41.4 µM.

And the viability at 0.01 µM (HUVECs; [10])?
The viability at 0.01 µM was 94.4%.

And the activity at 0.01 µM (HUVECs; [11])?
Its activity at 0.01 µM is 93.5%.

And the activity at 0.01 µM (HUVECs; [12])?
The activity at 0.01 µM was 103%.

And the activity at 0.01 µM (HUVECs; [13])?
The activity at 0.01 µM was 98.9%.

And the viability at 0.1 µM (HUVECs; [10])?
Its viability at 0.1 µM is 120%.

And the activity at 0.1 µM (HUVECs; [11])?
Its activity at 0.1 µM is 118%.

And the activity at 0.1 µM (HUVECs; [12])?
Its activity at 0.1 µM is 104%.

And the activity at 0.1 µM (HUVECs; [13])?
Its activity at 0.1 µM is 94.5%.

What about the viability at 1 µM (HUVECs; [10]) of the same compound?
Its viability at 1 µM is 93.9%.

And the activity at 1 µM (HUVECs; [11])?
The activity at 1 µM was 93.9%.

What about the activity at 1 µM (HUVECs; [12]) of the same compound?
The activity at 1 µM was 111%.

And the activity at 1 µM (HUVECs; [13])?
The activity at 1 µM was 98%.

What about the viability at 10 µM (HUVECs; [10]) of the same compound?
Its viability at 10 µM is 46.9%.

What about the activity at 10 µM (HUVECs; [11]) of the same compound?
Its activity at 10 µM is 33.2%.

And the activity at 10 µM (HUVECs; [12])?
Its activity at 10 µM is 15.3%.

What about the activity at 10 µM (HUVECs; [13]) of the same compound?
Its activity at 10 µM is 61.6%.

What about the viability at 100 µM (HUVECs; [10]) of the same compound?
The viability at 100 µM was 72%.

And the activity at 100 µM (HUVECs; [11])?
The activity at 100 µM was 0.65%.

And the activity at 100 µM (HUVECs; [12])?
The activity at 100 µM was 5.52%.

And the activity at 100 µM (HUVECs; [13])?
The activity at 100 µM was 119%.

And the minimal effective concentration (HUVECs; 24 hr, read-out: huvec.cyto.24hr POD)?
Its minimal effective concentration is 1 µM.

And the minimal effective concentration (HUVECs; 24 hr, read-out: huvec.mito.24hr POD)?
The minimal effective concentration was 1.1 µM.

And the minimal effective concentration (HUVECs; 24 hr, read-out: huvec.mitoint.24hr POD)?
Its minimal effective concentration is 2.32 µM.

And the minimal effective concentration (HUVECs; 24 hr, read-out: huvec.nma.24hr POD)?
The minimal effective concentration was 100 µM.

And the viability at 0.01 µM (HUVECs; [14])?
The viability at 0.01 µM was 94.4%.

And the viability at 0.1 µM (HUVECs; [14])?
The viability at 0.1 µM was 120%.

What about the viability at 1 µM (HUVECs; [14]) of the same compound?
Its viability at 1 µM is 93.9%.

And the viability at 10 µM (HUVECs; [14])?
Its viability at 10 µM is 46.9%.

And the viability at 100 µM (HUVECs; [14])?
Its viability at 100 µM is 77.5%.

What about the minimal effective concentration (HUVECs; 24 hrs, read-out: huvec.tc.24hrs POD) of the same compound?
Its minimal effective concentration is 1 µM.
